Laboratory results published in ChEMBL document CHEMBL1926576, “Fragment based lead discovery of small molecule inhibitors for the EPHA4 receptor tyrosine kinase” (Eur J Med Chem, 2012).

Tests used:
[1] = biological target: Mitogen-activated protein kinase 11 (Homo sapiens) (UniProt Q15759); experiment: Inhibition of p38beta MAPK assessed as residual activity at 10 uM using [33P-ATP] by radiometric filter binding assay
[2] = biological target: Mitogen-activated protein kinase 12 (Homo sapiens) (UniProt P53778); experiment: Inhibition of p38-gamma MAPK assessed as residual activity at 10 uM using [33P-ATP] by radiometric filter binding assay
[3] = biological target: Serine/threonine-protein kinase PAK 2 (Homo sapiens) (UniProt Q13177); experiment: Inhibition of PAK2 assessed as residual activity at 10 uM using [33P-ATP] by radiometric filter binding assay
[4] = biological target: Serine/threonine-protein kinase PAK 6 (Homo sapiens) (UniProt Q9NQU5); experiment: Inhibition of PAK6 assessed as residual activity at 10 uM using [33P-ATP] by radiometric filter binding assay
[5] = Inhibition of PKA assessed as residual activity at 10 uM using [33P-ATP] by radiometric filter binding assay
[6] = biological target: Serine/threonine-protein kinase Sgk1 (Homo sapiens) (UniProt O00141); experiment: Inhibition of SGK1 assessed as residual activity at 10 uM using [33P-ATP] by radiometric filter binding assay
[7] = biological target: SRSF protein kinase 1 (Homo sapiens) (UniProt Q96SB4); experiment: Inhibition of SRPK1 assessed as residual activity at 10 uM using [33P-ATP] by radiometric filter binding assay
[8] = biological target: Testis-specific serine/threonine-protein kinase 1 (Homo sapiens) (UniProt Q9BXA7); experiment: Inhibition of TSSK1 assessed as residual activity at 10 uM using [33P-ATP] by radiometric filter binding assay
[9] = biological target: Dual specificity protein kinase TTK (Homo sapiens) (UniProt P33981); experiment: Inhibition of TTK assessed as residual activity at 10 uM using [33P-ATP] by radiometric filter binding assay
[10] = Inhibition of VEGFR assessed as residual activity at 10 uM using [33P-ATP] by radiometric filter binding assay
[11] = biological target: Tyrosine-protein kinase Yes (Homo sapiens) (UniProt P07947); experiment: Inhibition of YES1 assessed as residual activity at 10 uM using [33P-ATP] by radiometric filter binding assay
Ephrin type-A receptor 4 = Ephrin type-A receptor 4 (Homo sapiens, UniProt P54764); experiment: Inhibition of his-tagged EPHA4-mediated poly(Glu,Tyr) phosphorylation after 75 mins using E4:Y1 as substrate by fluorescence assay
[12] = biological target: Tyrosine-protein kinase BTK (Homo sapiens) (UniProt Q06187); experiment: Inhibition of BTK assessed as residual activity at 10 uM using [33P-ATP] by radiometric filter binding assay
[13] = biological target: Calcium/calmodulin-dependent protein kinase type 1 (Homo sapiens) (UniProt Q14012); experiment: Inhibition of CAMK1 assessed as residual activity at 10 uM using [33P-ATP] by radiometric filter binding assay
[14] = biological target: Calcium/calmodulin-dependent protein kinase kinase 2 (Homo sapiens) (UniProt Q96RR4); experiment: Inhibition of CAMKKbeta assessed as residual activity at 10 uM using [33P-ATP] by radiometric filter binding assay
[15] = Inhibition of CK2 assessed as residual activity at 10 uM using [33P-ATP] by radiometric filter binding assay
[16] = biological target: Dual specificity tyrosine-phosphorylation-regulated kinase 2 (Homo sapiens) (UniProt Q92630); experiment: Inhibition of DYRK2 assessed as residual activity at 10 uM using [33P-ATP] by radiometric filter binding assay
[17] = biological target: Eukaryotic elongation factor 2 kinase (Homo sapiens) (UniProt O00418); experiment: Inhibition of EF2K assessed as residual activity at 10 uM using [33P-ATP] by radiometric filter binding assay
[18] = biological target: Eukaryotic translation initiation factor 2-alpha kinase 3 (Homo sapiens) (UniProt Q9NZJ5); experiment: Inhibition of EIF2AK3 assessed as residual activity at 10 uM using [33P-ATP] by radiometric filter binding assay
[19] = biological target: Mitogen-activated protein kinase 15 (Homo sapiens) (UniProt Q8TD08); experiment: Inhibition of ERK8 assessed as residual activity at 10 uM using [33P-ATP] by radiometric filter binding assay
[20] = biological target: Mitogen-activated protein kinase kinase kinase kinase 2 (Homo sapiens) (UniProt Q12851); experiment: Inhibition of GCK assessed as residual activity at 10 uM using [33P-ATP] by radiometric filter binding assay
[21] = biological target: Insulin receptor (Homo sapiens) (UniProt P06213); experiment: Inhibition of IR assessed as residual activity at 10 uM using [33P-ATP] by radiometric filter binding assay
[22] = biological target: Tyrosine-protein kinase JAK2 (Homo sapiens) (UniProt O60674); experiment: Inhibition of JAK2 assessed as residual activity at 10 uM using [33P-ATP] by radiometric filter binding assay
[23] = biological target: Mitogen-activated protein kinase 10 (Homo sapiens) (UniProt P53779); experiment: Inhibition of JNK3 assessed as residual activity at 10 uM using [33P-ATP] by radiometric filter binding assay
[24] = biological target: Tyrosine-protein kinase Lck (Homo sapiens) (UniProt P06239); experiment: Inhibition of Lck assessed as residual activity at 10 uM using [33P-ATP] by radiometric filter binding assay
[25] = biological target: Serine/threonine-protein kinase MARK1 (Homo sapiens) (UniProt Q9P0L2); experiment: Inhibition of MARK1 assessed as residual activity at 10 uM using [33P-ATP] by radiometric filter binding assay
[26] = biological target: Serine/threonine-protein kinase MARK2 (Homo sapiens) (UniProt Q7KZI7); experiment: Inhibition of MARK2 assessed as residual activity at 10 uM using [33P-ATP] by radiometric filter binding assay
[27] = biological target: Maternal embryonic leucine zipper kinase (Homo sapiens) (UniProt Q14680); experiment: Inhibition of MELK assessed as residual activity at 10 uM using [33P-ATP] by radiometric filter binding assay
[28] = biological target: Dual specificity mitogen-activated protein kinase kinase 2 (Homo sapiens) (UniProt P36507); experiment: Inhibition of MKK2 assessed as residual activity at 10 uM using [33P-ATP] by radiometric filter binding assay
[29] = biological target: Dual specificity mitogen-activated protein kinase kinase 6 (Homo sapiens) (UniProt P52564); experiment: Inhibition of MKK6 assessed as residual activity at 10 uM using [33P-ATP] by radiometric filter binding assay
[30] = biological target: Mitogen-activated protein kinase kinase kinase 9 (Homo sapiens) (UniProt P80192); experiment: Inhibition of MLK1 assessed as residual activity at 10 uM using [33P-ATP] by radiometric filter binding assay
[31] = biological target: Mitogen-activated protein kinase kinase kinase 11 (Homo sapiens) (UniProt Q16584); experiment: Inhibition of MLK3 assessed as residual activity at 10 uM using [33P-ATP] by radiometric filter binding assay
[32] = biological target: MAP kinase-interacting serine/threonine-protein kinase 2 (Homo sapiens) (UniProt Q9HBH9); experiment: Inhibition of MNK2 assessed as residual activity at 10 uM using [33P-ATP] by radiometric filter binding assay

Chain of Maternal embryonic leucine zipper kinase (Homo sapiens) (Q14680 whole entry, looked up): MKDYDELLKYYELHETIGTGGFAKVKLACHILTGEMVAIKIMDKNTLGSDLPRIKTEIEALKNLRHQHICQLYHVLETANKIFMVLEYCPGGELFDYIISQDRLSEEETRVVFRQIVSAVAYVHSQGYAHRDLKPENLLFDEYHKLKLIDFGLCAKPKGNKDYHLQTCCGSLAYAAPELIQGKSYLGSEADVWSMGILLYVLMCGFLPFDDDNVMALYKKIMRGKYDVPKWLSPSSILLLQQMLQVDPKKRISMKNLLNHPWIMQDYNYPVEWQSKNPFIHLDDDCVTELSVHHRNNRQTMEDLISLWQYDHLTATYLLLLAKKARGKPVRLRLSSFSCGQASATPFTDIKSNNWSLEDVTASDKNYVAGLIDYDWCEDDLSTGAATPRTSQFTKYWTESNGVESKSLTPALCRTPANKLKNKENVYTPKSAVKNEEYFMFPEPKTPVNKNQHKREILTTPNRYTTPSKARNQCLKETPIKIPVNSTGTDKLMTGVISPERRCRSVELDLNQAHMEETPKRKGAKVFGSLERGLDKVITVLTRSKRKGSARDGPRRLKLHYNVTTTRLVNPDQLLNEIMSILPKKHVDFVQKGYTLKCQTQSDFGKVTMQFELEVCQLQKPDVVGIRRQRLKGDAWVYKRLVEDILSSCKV
Chain of Mitogen-activated protein kinase 10 (Homo sapiens) (P53779 whole entry): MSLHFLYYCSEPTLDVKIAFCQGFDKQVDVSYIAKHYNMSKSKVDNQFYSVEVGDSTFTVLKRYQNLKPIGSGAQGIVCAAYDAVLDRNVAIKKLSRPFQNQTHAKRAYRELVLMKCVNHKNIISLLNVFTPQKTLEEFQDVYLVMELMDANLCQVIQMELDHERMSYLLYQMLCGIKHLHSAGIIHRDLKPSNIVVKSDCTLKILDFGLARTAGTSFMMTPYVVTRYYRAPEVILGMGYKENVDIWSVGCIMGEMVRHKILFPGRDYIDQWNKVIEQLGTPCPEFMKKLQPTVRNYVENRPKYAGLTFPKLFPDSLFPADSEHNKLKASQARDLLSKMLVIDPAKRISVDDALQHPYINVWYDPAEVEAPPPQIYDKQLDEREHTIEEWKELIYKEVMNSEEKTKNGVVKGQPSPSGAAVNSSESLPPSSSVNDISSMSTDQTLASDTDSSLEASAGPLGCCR
Chain of Serine/threonine-protein kinase MARK2 (Homo sapiens) (Q7KZI7 whole entry): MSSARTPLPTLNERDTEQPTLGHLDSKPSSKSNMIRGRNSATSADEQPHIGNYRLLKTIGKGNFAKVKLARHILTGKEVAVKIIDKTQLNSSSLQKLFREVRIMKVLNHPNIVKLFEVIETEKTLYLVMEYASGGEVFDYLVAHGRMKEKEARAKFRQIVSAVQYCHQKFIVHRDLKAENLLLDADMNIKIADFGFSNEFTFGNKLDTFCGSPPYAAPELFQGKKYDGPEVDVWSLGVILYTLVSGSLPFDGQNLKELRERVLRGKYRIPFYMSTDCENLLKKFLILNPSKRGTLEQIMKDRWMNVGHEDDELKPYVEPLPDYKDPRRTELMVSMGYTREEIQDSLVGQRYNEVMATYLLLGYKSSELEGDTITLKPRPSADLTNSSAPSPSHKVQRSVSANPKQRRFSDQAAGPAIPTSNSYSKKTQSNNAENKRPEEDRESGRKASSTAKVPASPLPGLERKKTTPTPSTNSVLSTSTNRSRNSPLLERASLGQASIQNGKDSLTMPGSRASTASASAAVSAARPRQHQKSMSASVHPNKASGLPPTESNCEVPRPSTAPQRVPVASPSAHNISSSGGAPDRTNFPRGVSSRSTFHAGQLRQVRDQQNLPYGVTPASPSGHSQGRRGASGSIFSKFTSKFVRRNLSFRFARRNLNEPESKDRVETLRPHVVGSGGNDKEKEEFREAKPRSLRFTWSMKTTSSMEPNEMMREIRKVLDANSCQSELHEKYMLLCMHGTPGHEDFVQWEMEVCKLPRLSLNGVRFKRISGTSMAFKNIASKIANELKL
Chain of Mitogen-activated protein kinase kinase kinase 9 (Homo sapiens) (P80192 whole entry, looked up): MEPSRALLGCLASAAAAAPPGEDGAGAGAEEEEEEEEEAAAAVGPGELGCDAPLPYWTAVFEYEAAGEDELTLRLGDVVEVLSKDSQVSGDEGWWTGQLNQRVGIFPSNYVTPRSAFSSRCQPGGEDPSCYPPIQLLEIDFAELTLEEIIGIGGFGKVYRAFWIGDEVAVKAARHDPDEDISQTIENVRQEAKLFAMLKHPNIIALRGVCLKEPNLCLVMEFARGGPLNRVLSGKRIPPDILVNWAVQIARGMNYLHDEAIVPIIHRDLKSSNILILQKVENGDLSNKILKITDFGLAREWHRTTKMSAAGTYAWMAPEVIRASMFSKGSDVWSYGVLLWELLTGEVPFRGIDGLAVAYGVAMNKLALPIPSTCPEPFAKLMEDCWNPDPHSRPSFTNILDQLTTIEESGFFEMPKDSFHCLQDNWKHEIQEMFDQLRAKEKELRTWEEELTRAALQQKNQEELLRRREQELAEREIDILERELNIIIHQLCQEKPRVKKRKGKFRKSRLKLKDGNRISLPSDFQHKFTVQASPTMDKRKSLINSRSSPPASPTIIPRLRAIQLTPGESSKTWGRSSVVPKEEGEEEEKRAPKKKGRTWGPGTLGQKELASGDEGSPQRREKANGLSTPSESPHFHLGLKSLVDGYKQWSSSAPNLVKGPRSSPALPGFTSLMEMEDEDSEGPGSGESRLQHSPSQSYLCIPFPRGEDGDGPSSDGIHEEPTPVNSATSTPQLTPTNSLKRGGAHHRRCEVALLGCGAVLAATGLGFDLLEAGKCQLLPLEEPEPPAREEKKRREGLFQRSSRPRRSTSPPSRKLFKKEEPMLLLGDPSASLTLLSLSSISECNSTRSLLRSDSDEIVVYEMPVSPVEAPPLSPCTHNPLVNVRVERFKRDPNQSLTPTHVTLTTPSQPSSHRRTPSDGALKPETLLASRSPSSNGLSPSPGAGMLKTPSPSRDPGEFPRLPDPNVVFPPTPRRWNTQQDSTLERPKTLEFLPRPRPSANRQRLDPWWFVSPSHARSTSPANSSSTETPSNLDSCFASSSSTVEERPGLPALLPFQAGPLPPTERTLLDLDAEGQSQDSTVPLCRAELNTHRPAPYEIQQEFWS
Chain of Calcium/calmodulin-dependent protein kinase kinase 2 (Homo sapiens) (Q96RR4 2-588 limits assumed): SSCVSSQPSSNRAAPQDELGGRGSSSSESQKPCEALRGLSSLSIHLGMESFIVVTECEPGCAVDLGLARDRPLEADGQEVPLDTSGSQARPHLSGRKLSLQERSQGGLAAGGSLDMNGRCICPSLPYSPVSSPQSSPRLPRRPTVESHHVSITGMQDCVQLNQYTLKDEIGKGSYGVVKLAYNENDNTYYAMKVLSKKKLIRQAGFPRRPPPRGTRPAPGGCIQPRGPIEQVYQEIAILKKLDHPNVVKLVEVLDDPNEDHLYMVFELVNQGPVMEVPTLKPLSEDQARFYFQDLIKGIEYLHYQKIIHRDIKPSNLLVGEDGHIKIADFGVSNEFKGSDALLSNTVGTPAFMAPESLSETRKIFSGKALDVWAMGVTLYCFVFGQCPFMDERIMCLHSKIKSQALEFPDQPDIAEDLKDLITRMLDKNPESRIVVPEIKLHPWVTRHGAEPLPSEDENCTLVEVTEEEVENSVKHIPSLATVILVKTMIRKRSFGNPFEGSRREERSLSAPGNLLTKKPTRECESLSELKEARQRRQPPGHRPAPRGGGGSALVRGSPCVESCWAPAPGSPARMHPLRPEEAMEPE
Chain of Serine/threonine-protein kinase PAK 6 (Homo sapiens) (Q9NQU5 whole entry, looked up): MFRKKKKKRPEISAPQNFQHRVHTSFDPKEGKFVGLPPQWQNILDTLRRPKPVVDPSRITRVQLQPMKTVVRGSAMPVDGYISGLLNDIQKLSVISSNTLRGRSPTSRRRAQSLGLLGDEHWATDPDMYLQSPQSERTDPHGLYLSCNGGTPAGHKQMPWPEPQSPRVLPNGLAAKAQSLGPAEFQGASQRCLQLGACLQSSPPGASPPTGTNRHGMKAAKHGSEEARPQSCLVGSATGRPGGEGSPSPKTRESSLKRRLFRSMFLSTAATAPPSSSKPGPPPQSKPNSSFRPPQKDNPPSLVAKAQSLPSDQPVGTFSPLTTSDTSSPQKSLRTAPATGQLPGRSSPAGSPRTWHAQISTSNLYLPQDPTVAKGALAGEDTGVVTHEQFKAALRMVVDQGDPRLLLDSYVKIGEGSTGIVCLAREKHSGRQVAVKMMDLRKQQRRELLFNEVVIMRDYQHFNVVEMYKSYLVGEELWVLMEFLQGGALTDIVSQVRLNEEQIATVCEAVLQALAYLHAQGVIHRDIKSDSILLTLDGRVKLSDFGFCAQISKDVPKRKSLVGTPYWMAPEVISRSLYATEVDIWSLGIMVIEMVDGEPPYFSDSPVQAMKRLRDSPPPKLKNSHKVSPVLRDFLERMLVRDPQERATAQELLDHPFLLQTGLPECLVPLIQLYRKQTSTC
Chain of Mitogen-activated protein kinase 15 (Homo sapiens) (Q8TD08 whole entry): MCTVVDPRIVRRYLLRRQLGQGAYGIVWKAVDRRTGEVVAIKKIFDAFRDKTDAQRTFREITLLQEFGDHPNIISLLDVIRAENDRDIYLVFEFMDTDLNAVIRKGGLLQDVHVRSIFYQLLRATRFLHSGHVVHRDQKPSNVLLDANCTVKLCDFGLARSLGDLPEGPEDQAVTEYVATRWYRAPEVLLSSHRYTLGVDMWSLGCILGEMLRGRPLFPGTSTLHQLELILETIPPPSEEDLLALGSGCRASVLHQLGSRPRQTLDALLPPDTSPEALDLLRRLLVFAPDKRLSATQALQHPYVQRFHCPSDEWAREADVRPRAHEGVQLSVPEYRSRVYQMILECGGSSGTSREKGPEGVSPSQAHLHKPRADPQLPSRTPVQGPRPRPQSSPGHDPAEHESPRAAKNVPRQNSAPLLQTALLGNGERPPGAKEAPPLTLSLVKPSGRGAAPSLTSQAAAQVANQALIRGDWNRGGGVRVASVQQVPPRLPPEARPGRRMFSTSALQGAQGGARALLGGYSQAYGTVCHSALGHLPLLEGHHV

- Activity [1]: 25%
- Activity [2]: 91%
- Activity [3]: 79%
- Activity [4]: 103%
- Activity [5]: 93%
- Activity [6]: 85%
- Activity [7]: 89%
- Activity [8]: 75%
- Activity [9]: 81%
- Activity [10]: 76%
- Activity [11]: 18%
- IC50 (Ephrin type-A receptor 4): 4.5 µM
- Activity [12]: 30%
- Activity [13]: 75%
- Activity [14]: 89%
- Activity [15]: 93%
- Activity [16]: 101%
- Activity [17]: 114%
- Activity [18]: 82%
- Activity [20]: 59%
- Activity [21]: 83%
- Activity [22]: 74%
- Activity [23]: 72%
- Activity [24]: 8%
- Activity [25]: 86%
- Activity [26]: 78%
- Activity [27]: 64%
- Activity [28]: 31%
- Activity [29]: 86%
- Activity [30]: 63%
- Activity [31]: 60%
- Activity [32]: 93%
Compound: Cc1ccc(F)cc1-c1nc2[nH]nc(N)c2c2c1CCCC2
- Activity [19]: 46%
